Measurements published in ChEMBL document CHEMBL2150905, “Discovery of Disubstituted Imidazo[4,5-b]pyridines and Purines as Potent TrkA Inhibitors” (ACS Med Chem Lett, 2012).
Converted amounts (≈) assume the structure as drawn.

Tests used:
[1] = Half life in Han Wistar rat at 10 mg/kg, po and 3 mg/kg, iv; format: ADME, organism-based; conditions: in vivo
[2] = Oral bioavailability in Han Wistar rat at 10 mg/kg; format: ADME, organism-based; conditions: in vivo
[3] = biological target: T1, Tyrosine-protein kinase ABL1 (Homo sapiens, UniProt P00519); assay: Inhibition of Abl
[4] = biological target: T2, High affinity nerve growth factor receptor (Homo sapiens, UniProt P04629); assay: Inhibition of TrkA
[5] = biological target: Receptor-type tyrosine-protein kinase FLT3 (Homo sapiens, UniProt P36888); assay: Inhibition of Flt3
[6] = biological target: T3, Tyrosine-protein kinase Fgr (Homo sapiens, UniProt P09769); assay: Inhibition of Fgr
[7] = biological target: T4, Tyrosine-protein kinase BTK (Homo sapiens, UniProt Q06187); assay: Inhibition of BTK
[8] = biological target: T5, Serine/threonine-protein kinase SIK1 (Homo sapiens, UniProt P57059); assay: Inhibition of SIK
[9] = biological target: Phosphorylase b kinase gamma catalytic chain, liver/testis isoform (Homo sapiens, UniProt P15735); assay: Inhibition of PhKg2
[10] = biological target: T6, Fibroblast growth factor receptor 1 (Homo sapiens, UniProt P11362); assay: Inhibition of FGFR1
[11] = biological target: T7, Mitogen-activated protein kinase 14 (Homo sapiens, UniProt Q16539); assay: Inhibition of SAPK2a
T7 sequence (Q16539 whole entry): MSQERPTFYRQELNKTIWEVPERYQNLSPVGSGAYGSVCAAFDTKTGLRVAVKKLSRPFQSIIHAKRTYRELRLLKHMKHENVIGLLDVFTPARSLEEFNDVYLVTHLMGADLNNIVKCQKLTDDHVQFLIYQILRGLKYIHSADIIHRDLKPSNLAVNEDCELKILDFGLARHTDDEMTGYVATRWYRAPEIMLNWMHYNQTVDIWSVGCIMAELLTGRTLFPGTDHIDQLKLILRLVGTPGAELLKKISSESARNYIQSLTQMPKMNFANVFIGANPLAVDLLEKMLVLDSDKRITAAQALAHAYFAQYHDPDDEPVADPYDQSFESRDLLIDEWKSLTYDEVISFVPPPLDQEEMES

Focal adhesion kinase 1 [12] = biological target: T8, Focal adhesion kinase 1 (Homo sapiens, UniProt Q05397); assay: Inhibition of FAK
[13] = biological target: T9, Proto-oncogene tyrosine-protein kinase Src (Homo sapiens, UniProt P12931); assay: Inhibition of cSrc
T9 sequence (P12931 2-536 limits assumed): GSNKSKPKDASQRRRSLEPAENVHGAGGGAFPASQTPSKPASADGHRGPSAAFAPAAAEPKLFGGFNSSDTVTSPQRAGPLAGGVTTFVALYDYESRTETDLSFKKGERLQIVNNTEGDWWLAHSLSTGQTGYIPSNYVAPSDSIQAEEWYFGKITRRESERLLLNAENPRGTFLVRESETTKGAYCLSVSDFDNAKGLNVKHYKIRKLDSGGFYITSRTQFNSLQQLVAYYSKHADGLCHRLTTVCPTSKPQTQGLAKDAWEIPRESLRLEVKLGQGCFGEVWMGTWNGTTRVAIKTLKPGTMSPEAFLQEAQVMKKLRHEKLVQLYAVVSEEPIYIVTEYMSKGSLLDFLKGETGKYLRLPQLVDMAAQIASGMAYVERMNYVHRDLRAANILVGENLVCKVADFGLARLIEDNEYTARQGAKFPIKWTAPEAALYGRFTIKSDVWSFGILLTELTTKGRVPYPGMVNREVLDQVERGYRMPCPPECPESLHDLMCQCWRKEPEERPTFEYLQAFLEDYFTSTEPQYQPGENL

[14] = biological target: Testis-specific serine/threonine-protein kinase 2 (Homo sapiens, UniProt Q96PF2); assay: Inhibition of TSSK2
[15] = biological target: T10, ALK tyrosine kinase receptor (Homo sapiens, UniProt Q9UM73); assay: Inhibition of ALK
[16] = biological target: T11, Mitogen-activated protein kinase kinase kinase 9 (Homo sapiens, UniProt P80192); assay: Inhibition of MLK1
[17] = biological target: T12, Vascular endothelial growth factor receptor 3 (Homo sapiens, UniProt P35916); assay: Inhibition of FLT4
[18] = biological target: T13, Tyrosine-protein kinase JAK2 (Homo sapiens, UniProt O60674); assay: Inhibition of JAK2
T13 sequence (O60674 whole entry): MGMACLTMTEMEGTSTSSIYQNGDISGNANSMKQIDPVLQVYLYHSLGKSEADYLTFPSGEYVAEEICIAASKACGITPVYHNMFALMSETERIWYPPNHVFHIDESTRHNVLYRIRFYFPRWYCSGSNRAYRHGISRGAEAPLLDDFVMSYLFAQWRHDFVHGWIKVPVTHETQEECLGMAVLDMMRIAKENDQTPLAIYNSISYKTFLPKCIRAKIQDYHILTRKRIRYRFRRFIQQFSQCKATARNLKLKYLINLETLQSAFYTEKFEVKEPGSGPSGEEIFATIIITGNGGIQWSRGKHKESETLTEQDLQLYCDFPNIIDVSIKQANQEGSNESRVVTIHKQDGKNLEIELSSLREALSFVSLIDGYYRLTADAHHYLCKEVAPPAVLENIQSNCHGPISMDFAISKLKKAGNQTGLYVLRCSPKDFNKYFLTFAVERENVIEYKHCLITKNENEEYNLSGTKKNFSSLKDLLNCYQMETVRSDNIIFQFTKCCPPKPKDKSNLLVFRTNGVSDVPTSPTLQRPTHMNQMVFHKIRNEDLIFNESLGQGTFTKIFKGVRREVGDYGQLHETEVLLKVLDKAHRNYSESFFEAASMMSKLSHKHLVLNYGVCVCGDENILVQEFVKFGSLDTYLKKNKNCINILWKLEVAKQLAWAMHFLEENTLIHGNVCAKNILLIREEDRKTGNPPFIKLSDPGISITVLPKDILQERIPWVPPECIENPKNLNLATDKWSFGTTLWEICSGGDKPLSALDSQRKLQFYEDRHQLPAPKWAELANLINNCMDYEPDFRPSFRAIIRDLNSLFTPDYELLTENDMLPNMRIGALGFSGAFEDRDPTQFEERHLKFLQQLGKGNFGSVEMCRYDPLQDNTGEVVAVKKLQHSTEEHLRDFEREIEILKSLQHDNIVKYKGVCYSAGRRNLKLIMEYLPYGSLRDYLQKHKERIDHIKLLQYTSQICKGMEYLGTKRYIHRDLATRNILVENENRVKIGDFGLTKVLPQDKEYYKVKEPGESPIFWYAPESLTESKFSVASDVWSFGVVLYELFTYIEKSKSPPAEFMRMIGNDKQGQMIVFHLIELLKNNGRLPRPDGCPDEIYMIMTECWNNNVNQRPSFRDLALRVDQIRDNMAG

[19] = biological target: Tyrosine-protein kinase ITK/TSK (Homo sapiens, UniProt Q08881); assay: Inhibition of Itk
[20] = biological target: T14, Serine/threonine-protein kinase WNK3 (Homo sapiens, UniProt Q9BYP7); assay: Inhibition of WNK3
T14 sequence (Q9BYP7 whole entry): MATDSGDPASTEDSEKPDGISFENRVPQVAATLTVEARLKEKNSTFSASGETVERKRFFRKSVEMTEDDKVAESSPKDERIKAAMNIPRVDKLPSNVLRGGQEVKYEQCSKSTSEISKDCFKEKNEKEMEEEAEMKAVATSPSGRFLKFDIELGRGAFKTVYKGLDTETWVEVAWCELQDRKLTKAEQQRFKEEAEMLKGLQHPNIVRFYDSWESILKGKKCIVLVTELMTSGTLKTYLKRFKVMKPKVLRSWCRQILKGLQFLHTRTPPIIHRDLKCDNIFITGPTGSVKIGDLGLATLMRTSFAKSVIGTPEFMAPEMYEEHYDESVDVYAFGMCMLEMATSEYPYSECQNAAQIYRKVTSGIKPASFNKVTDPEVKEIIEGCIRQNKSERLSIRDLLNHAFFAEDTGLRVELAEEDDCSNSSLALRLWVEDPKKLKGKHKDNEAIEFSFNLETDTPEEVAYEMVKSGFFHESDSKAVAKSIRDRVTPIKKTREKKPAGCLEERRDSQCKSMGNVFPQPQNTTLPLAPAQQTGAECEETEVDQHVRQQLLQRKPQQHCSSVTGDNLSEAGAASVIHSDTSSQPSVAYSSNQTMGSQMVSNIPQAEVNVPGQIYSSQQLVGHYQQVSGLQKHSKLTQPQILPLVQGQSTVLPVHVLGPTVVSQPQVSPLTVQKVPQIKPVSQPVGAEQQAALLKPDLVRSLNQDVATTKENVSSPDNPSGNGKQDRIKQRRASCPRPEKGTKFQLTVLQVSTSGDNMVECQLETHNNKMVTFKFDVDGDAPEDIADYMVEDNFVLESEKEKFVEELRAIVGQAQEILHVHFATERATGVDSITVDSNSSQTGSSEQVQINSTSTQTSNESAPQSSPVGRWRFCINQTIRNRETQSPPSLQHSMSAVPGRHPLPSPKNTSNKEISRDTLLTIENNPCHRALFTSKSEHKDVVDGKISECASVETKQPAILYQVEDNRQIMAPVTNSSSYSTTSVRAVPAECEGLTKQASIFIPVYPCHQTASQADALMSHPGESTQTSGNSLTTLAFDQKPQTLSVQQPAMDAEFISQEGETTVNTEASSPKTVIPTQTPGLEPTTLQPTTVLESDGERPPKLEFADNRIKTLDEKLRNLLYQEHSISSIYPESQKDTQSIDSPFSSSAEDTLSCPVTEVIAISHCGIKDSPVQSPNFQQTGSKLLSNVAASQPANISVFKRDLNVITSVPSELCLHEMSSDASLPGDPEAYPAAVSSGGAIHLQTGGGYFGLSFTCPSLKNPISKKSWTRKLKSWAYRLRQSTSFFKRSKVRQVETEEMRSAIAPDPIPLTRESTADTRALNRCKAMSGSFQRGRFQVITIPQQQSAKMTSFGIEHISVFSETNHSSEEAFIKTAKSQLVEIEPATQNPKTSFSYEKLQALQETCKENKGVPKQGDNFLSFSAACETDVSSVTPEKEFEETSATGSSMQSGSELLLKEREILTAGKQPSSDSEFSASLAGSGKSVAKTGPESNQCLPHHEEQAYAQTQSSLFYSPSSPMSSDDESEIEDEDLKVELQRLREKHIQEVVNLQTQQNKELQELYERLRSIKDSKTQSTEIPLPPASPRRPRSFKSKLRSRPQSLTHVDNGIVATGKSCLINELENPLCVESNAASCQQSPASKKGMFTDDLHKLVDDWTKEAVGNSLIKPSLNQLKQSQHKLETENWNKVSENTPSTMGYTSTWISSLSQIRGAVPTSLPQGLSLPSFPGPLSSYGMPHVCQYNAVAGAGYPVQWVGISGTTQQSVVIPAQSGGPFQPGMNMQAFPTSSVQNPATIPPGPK

[21] = biological target: BDNF/NT-3 growth factors receptor (Homo sapiens, UniProt Q16620); assay: Inhibition of TrkB
[22] = biological target: Proto-oncogene tyrosine-protein kinase receptor Ret (Homo sapiens, UniProt P07949); assay: Inhibition of Ret
[23] = biological target: Tyrosine-protein kinase Lck (Homo sapiens, UniProt P06239); assay: Inhibition of Lck
[24] = biological target: Receptor-type tyrosine-protein kinase FLT3 (Homo sapiens) (UniProt P36888); assay: Inhibition of Flt3 at 10 uM
[25] = biological target: T3, Tyrosine-protein kinase Fgr; assay: Inhibition of Fgr at 10 uM
[26] = biological target: T4, Tyrosine-protein kinase BTK; assay: Inhibition of BTK at 10 uM
[27] = biological target: T5, Serine/threonine-protein kinase SIK1; assay: Inhibition of SIK at 10 uM
[28] = biological target: Phosphorylase b kinase gamma catalytic chain, liver/testis isoform (Homo sapiens) (UniProt P15735); assay: Inhibition of PhKg2 at 10 uM
[29] = biological target: T6, Fibroblast growth factor receptor 1; assay: Inhibition of FGFR1 at 10 uM
[30] = biological target: T7, Mitogen-activated protein kinase 14; assay: Inhibition of SAPK2a at 10 uM
Focal adhesion kinase 1 [31] = biological target: T8, Focal adhesion kinase 1; assay: Inhibition of FAK at 10 uM
[32] = biological target: T9, Proto-oncogene tyrosine-protein kinase Src; assay: Inhibition of cSrc at 10 uM
[33] = biological target: T10, ALK tyrosine kinase receptor; assay: Inhibition of ALK at 10 uM
[34] = biological target: T11, Mitogen-activated protein kinase kinase kinase 9; assay: Inhibition of MLK1 at 10 uM
[35] = biological target: T12, Vascular endothelial growth factor receptor 3; assay: Inhibition of FLT4 at 10 uM
[36] = biological target: T13, Tyrosine-protein kinase JAK2; assay: Inhibition of JAK2 at 10 uM
[37] = biological target: Tyrosine-protein kinase ITK/TSK (Homo sapiens) (UniProt Q08881); assay: Inhibition of Itk at 10 uM
[38] = biological target: Muscle, skeletal receptor tyrosine-protein kinase (Homo sapiens, UniProt O15146); assay: Inhibition of MuSk
[39] = biological target: Voltage-gated inwardly rectifying potassium channel KCNH2 (Homo sapiens, UniProt Q12809)
Sequence of Voltage-gated inwardly rectifying potassium channel KCNH2 (Q12809 whole entry): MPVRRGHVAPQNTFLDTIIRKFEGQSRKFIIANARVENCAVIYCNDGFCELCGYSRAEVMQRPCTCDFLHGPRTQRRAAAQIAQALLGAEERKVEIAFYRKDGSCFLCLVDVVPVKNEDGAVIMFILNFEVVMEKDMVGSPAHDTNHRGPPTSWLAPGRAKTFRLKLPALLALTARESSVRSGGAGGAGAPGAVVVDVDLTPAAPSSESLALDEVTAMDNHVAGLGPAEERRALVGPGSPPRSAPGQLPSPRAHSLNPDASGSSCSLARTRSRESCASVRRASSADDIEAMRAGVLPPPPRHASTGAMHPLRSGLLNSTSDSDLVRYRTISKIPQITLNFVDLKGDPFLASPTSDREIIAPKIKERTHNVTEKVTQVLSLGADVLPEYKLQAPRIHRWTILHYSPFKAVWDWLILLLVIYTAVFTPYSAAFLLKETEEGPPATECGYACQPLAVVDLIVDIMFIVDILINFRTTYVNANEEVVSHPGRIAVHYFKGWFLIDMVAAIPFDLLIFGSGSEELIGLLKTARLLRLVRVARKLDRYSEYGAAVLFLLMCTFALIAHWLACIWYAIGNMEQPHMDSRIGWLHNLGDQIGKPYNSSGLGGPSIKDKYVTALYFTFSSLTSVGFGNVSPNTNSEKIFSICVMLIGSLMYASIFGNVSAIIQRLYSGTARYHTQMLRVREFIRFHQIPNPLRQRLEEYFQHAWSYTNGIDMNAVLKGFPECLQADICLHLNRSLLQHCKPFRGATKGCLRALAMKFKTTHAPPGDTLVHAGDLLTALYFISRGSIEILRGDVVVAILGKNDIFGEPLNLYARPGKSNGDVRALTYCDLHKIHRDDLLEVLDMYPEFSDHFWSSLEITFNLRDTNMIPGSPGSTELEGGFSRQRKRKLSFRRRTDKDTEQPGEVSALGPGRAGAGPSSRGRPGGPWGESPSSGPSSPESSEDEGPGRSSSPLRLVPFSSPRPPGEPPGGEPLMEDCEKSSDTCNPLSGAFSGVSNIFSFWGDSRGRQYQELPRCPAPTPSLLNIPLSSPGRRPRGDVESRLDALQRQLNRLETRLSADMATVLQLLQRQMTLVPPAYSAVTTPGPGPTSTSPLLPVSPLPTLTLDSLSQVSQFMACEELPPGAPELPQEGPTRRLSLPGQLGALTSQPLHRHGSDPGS

[40] = biological target: T1, Tyrosine-protein kinase ABL1; conditions: 10 uM
Description: Inhibition of Abl at 10 uM

[41] = biological target: T2, High affinity nerve growth factor receptor; conditions: 10 uM
Description: Inhibition of TrkA at 10 uM

[42] = biological target: Testis-specific serine/threonine-protein kinase 2 (Homo sapiens) (UniProt Q96PF2); conditions: 10 uM
Description: Inhibition of TSSK2 at 10 uM

[43] = biological target: T14, Serine/threonine-protein kinase WNK3; conditions: 10 uM
Description: Inhibition of WNK3 at 10 uM

in vivo = conditions: Han Wistar, rat, iv, 3 mg/kg
Description: Clearance in Han Wistar rat at 10 mg/kg, po and 3 mg/kg, iv

in vitro [44] = conditions: rat, hepatocytes
Description: Intrinsic clearance in rat hepatocytes assessed per million cells by LC/MS/MS analysis

in vitro [45] = conditions: human, plasma
Description: Fraction unbound in human plasma

physchem = conditions: buffer
Description: Aqueous solubility of the compound

[46] = Clearance in beagle dog at 10 mg/kg, po and 2 mg/kg, iv; format: ADME, organism-based, Canis lupus familiaris; conditions: in vivo
[47] = Half life in beagle dog at 10 mg/kg, po and 2 mg/kg, iv; format: ADME, organism-based, Canis lupus familiaris; conditions: in vivo
[48] = Oral bioavailability in beagle dog at 10 mg/kg; format: ADME, organism-based, Canis lupus familiaris; conditions: in vivo
NIH3T3 [49] = assay: Antitumor activity against 3T3 cells overexpressing constitutively active TRKA allografted in CrTac:Ncr-Foxn1nu mouse assessed as tumor stasis at 5 mg/kg, po BID for 7 days; format: functional
Mus musculus [50] = assay: Toxicity in 3T3 cells overexpressing constitutively active TRKA allografted CrTac:Ncr-Foxn1nu mouse assessed as weight loss at 1 to 5 mg/kg, po BID for 7 days; format: organism-based, NIH3T3; design: dose 1-5 mg/kg, route oral; conditions: in vivo, 168 h
NIH3T3 [51] = assay: animal or person; conditions: Mus musculus, NIH3T3, po, 168 h, read-out: TGI
Description: Antitumor activity against 3T3 cells overexpressing constitutively active TRKA allografted in CrTac:Ncr-Foxn1nu mouse assessed as tumor growth inhibition at 1 mg/kg, po BID for 7 days

NIH3T3 [52] = assay: Antitumor activity against 3T3 cells overexpressing constitutively active TRKA allografted in CrTac:Ncr-Foxn1nu mouse assessed as tumor regression at 5 mg/kg, po BID for 7 days; format: functional
NIH3T3 [53] = assay: Antitumor activity against 3T3 cells overexpressing constitutively active TRKA allografted in CrTac:Ncr-Foxn1nu mouse assessed as tumor growth delay time at 25 mg/kg, po BID for 7 days; format: functional
Mus musculus [54] = assay: Toxicity in 3T3 cells overexpressing constitutively active TRKA allografted CrTac:Ncr-Foxn1nu mouse assessed as weight loss at 1 to 25 mg/kg, po BID for 7 days; format: organism-based, NIH3T3; design: dose 1-25 mg/kg, route oral; conditions: in vivo, 168 h
NIH3T3 [55] = assay: Antitumor activity against 3T3 cells overexpressing constitutively active TRKA allografted in CrTac:Ncr-Foxn1nu mouse assessed as tumor regression at 25 mg/kg, po BID for 7 days; format: functional

## CC(C)Oc1cc(-n2cnc3ccc(N[C@@H](C)c4ccc(F)cn4)nc32)n[nH]1
[1]
  half-life: 0.97 h
[2]
  bioavailability: 6.7%
[3]
  IC50: 1.2 nM
[4]
  IC50: 1.4 nM
[5]
  IC50: 2.1 nM
[6]
  IC50: 2.2 nM
[7]
  IC50: 3.5 nM
[8]
  IC50: 5.5 nM
[9]
  IC50: 6.1 nM
[10]
  IC50: 8.7 nM
[11]
  IC50: 13.4 nM
Focal adhesion kinase 1 [12]
  IC50: 17.2 nM
[13]
  IC50: 18.2 nM
[14]
  IC50: 30.6 nM
[15]
  IC50: 34.1 nM
[16]
  IC50: 44.3 nM
[17]
  IC50: 64 nM
[18]
  IC50: 68.3 nM
[19]
  IC50: 72.2 nM
[20]
  IC50: 99.8 nM
[21]
  IC50: < 100 nM
[22]
  IC50: < 100 nM
[23]
  IC50: < 100 nM
[24]
  inhibition: > 30%
[25]
  inhibition: > 30%
[26]
  inhibition: > 30%
[27]
  inhibition: > 30%
[28]
  inhibition: > 30%
[29]
  inhibition: > 30%
[30]
  inhibition: > 30%
Focal adhesion kinase 1 [31]
  inhibition: > 30%
[32]
  inhibition: > 30%
[33]
  inhibition: > 30%
[34]
  inhibition: > 30%
[35]
  inhibition: > 30%
[36]
  inhibition: > 30%
[37]
  inhibition: > 30%
[38]
  IC50: < 100 nM
[39]
  IC50: > 32000 nM
[40]
  inhibition: > 30%
[41]
  inhibition: > 30%
[42]
  inhibition: > 30%
[43]
  inhibition: > 30%
In vivo
  clearance: 41 mL/min/kg
In vitro [44]
  hepatocyte CLint: 42 µL/min/1e6 cells
In vitro [45]
  fraction unbound: 0.06

## COc1cc(Nc2nc3c(cc2F)ncn3[C@@H](CO)c2ccc(F)cn2)n[nH]1
[1]
  half-life: 3.2 h
[2]
  bioavailability: 41%
[39]
  IC50: > 32000 nM
In vivo
  clearance: 33 mL/min/kg
In vitro [44]
  hepatocyte CLint: 29 µL/min/1e6 cells
physchem
  solubility: 150 µM (≈ 58.1 µg/mL)

## C[C@H](Nc1ccc2ncn(-c3cc(C4CC4)[nH]n3)c2n1)c1ncc(F)cn1
[1]
  half-life: 1.2 h
[2]
  bioavailability: 33%
In vivo
  clearance: 39 mL/min/kg
In vitro [44]
  hepatocyte CLint: 48 µL/min/1e6 cells
physchem
  solubility: 590 µM (≈ 215 µg/mL)
In vitro [45]
  fraction unbound: 0.16

## CC(C)Oc1cc(-n2cnc3ccc(N[C@@H](CO)c4ccc(F)cn4)nc32)n[nH]1
[1]
  half-life: 2.3 h
[2]
  bioavailability: 29%
[46]
  clearance: 15.2 mL/min/kg
[47]
  half-life: 1 h
[48]
  bioavailability: 17%
NIH3T3 [49]
  Activity: -47%
Mus musculus [50]
  Activity: < 5%
[39]
  IC50: 52000 nM
In vivo
  clearance: 46 mL/min/kg
In vitro [44]
  hepatocyte CLint: 13 µL/min/1e6 cells
physchem
  solubility: 250 µM (≈ 99.4 µg/mL)
In vitro [45]
  fraction unbound: 0.081
NIH3T3 [51]
  inhibition in vivo at 1 mg/kg: 12%

## CC(C)Oc1cc(-n2cnc3cnc(N[C@@H](C)c4ncc(F)cn4)nc32)n[nH]1
[1]
  half-life: 3.8 h
[2]
  bioavailability: 29%
[39]
  IC50: > 32000 nM
In vivo
  clearance: 130 mL/min/kg
In vitro [44]
  hepatocyte CLint: 24 µL/min/1e6 cells
physchem
  solubility: 480 µM (≈ 184 µg/mL)
In vitro [45]
  fraction unbound: 0.31

## Cc1cc(-n2cnc3ccc(N[C@@H](C)c4ncc(F)cn4)nc32)n[nH]1
[1]
  half-life: 0.82 h
[2]
  bioavailability: 92%
[39]
  IC50: > 32000 nM
In vivo
  clearance: 45 mL/min/kg
physchem
  solubility: > 1000 µM
In vitro [45]
  fraction unbound: 0.39

## CC(C)Oc1cc(Nc2nc3c(cc2F)ncn3[C@@H](CO)c2ccc(F)cn2)n[nH]1
[1]
  half-life: 1.2 h
[2]
  bioavailability: 54%
NIH3T3 [52]
  Activity: -51%
NIH3T3 [53]
  Time: 4 days
Mus musculus [54]
  Activity: < 5%
NIH3T3 [55]
  Activity: -63%
In vivo
  clearance: 51 mL/min/kg
In vitro [44]
  hepatocyte CLint: 31 µL/min/1e6 cells
physchem
  solubility: 220 µM (≈ 91.4 µg/mL)
In vitro [45]
  fraction unbound: 0.058
NIH3T3 [51]
  inhibition in vivo at 1 mg/kg: 30%
